Test results from US11117947B2, “Double-acylated GLP-1 derivatives” (Novo Nordisk A/S, priority 2011, dated 2021).
Numbered stars: 1 amine (or outer) side, 2 acyl side, 3 side chain; on linkers, the order of the positions; unused ones are H or OH. Side chains are listed from the residue outwards. Peptide text beside a SMILES is read from it. * marks the point of attachment. Decanoyl(10-(4-HOOC-PhO)) = O=C(O)c1ccc(OCCCCCCCCCC(=O)*)cc1; γGlu = O=C(O)[C@H](CCC(=O)[*:2])N[*:1]; C14 diacid = O=C(O)CCCCCCCCCCCCC(=O)*; AEEA = NCCOCCOCC(=O)O

Experiment: Estimate of oral bioavailability: gut injection in rat (caprate), exposure in plasma
Type: in vivo
Conditions: injection in jejunum, 1000 uM in 55 mg/ml sodium caprate, plasma concentration (pM) at 30 min divided by dosing solution concentration (μM), mean n=4
Method: The GLP-1 derivatives were tested in a concentration of 1000 uM in a solution of 55 mg/ml sodium caprate.
Male Sprague Dawley rats with a body weight upon arrival of approximately 240 g were obtained from Taconic (Denmark) and assigned to the different treatments by simple randomisation, 4 rats per group.
The GLP-1 derivatives were administered in the jejunum either in the proximal part (10 cm distal for the duodenum) or in the mid-intestine (50 cm proximal for the cecum). A PE50-catheter, 10 cm long was inserted into the jejunum, forwarded at least 1.5 cm into the jejunum, and secured before dosing by ligature around the gut and the catheter with 3/0 suture distal to tip to prevent leak or catheter displacement. Catheter was placed without syringe and needle and 2 ml saline was administered into abdomen before closing the incision with wound clips.
100 μl of the respective GLP-1 derivative was injected into the jejunal lumen through the catheter with a 1 ml syringe. Subsequently, 200 μl of air was pushed into the jejunal lumen with another syringe to “flush” the catheter. This syringe was leaved connected to the catheter to prevent flow back into the catheter.
Blood samples (200 ul) were collected at desired intervals (usually at times 0, 10, 30, 60, 120 and 240 min) into EDTA tubes from the tail vein and centrifuged 5 minutes, 10000G, at 4° C. within 20 minutes. […] 12, p. 240-247. The donor beads were coated with streptavidin, while acceptor beads were conjugated with a monoclonal antibody recognising a mid-/C-terminal epitope of the peptide. Another monoclonal antibody, specific for the N-terminus, was biotinylated. The three reactants were combined with the analyte and formed a two-sited immuno-complex. Illumination of the complex released singlet oxygen atoms from the donor beads, which were channeled into the acceptor beads and triggered chemiluminescence which was measured in an Envision plate reader. The amount of light was proportional to the concentration of the compound.
After the blood sampling the rats were sacrificed under anaesthesia and the abdomen was opened to verify correct catheter placement.
The mean (n=4) plasma concentrations (pmol/l) were determined as a function of time.

Structure (SMILES)	Dose-corrected exposure at 30 min
CC[C@H](C)[C@H](NC(=O)[C@H](Cc1ccccc1)NC(=O)[C@H](CCCCNC(=O)COCCOCCNC(=O)COCCOCCNC(=O)CC[C@H](NC(=O)CCCCCCCCCOc1ccc(C(=O)O)cc1)C(=O)O)NC(=O)[C@H](CCCNC(=N)N)NC(=O)[C@H](C)NC(=O)[C@H](C)NC(=O)[C@H](CCC(N)=O)NC(=O)CNC(=O)[C@H](CCC(=O)O)NC(=O)[C@H](CC(C)C)NC(=O)[C@H](Cc1ccc(O)cc1)NC(=O)[C@H](CO)NC(=O)[C@H](CO)NC(=O)[C@@H](NC(=O)[C@H](CC(=O)O)NC(=O)[C@H](CO)NC(=O)[C@@H](NC(=O)[C@H](Cc1ccccc1)NC(=O)[C@@H](NC(=O)CNC(=O)[C@H](CCC(=O)O)NC(=O)[C@H](C)NC(=O)[C@@H](N)Cc1c[nH]cn1)[C@@H](C)O)[C@@H](C)O)C(C)C)C(=O)N[C@@H](CCC(=O)O)C(=O)N[C@@H](Cc1c[nH]c2ccccc12)C(=O)N[C@@H](CC(C)C)C(=O)N[C@H](C(=O)N[C@@H](CCCNC(=N)N)C(=O)NCC(=O)N[C@@H](CCCCNC(=O)COCCOCCNC(=O)COCCOCCNC(=O)CC[C@H](NC(=O)CCCCCCCCCOc1ccc(C(=O)O)cc1)C(=O)O)C(=O)NCC(=O)N[C@@H](CCC(=O)O)C(=O)O)C(C)C [Example 6, N^ε27-[2-[2-[2-[[2-[2-[2-[[(4S)-4-carboxy-4-[10-(4-carboxyphenoxy)decanoylamino]butanoyl]amino]ethoxy]ethoxy]acetyl]amino]ethoxy]ethoxy]acetyl], N^ε36-[2-[2-[2-[[2-[2-[2-[[(4S)-4-carboxy-4-[10-(4-carboxyphenoxy)decanoylamino]butanoyl]amino]ethoxy]ethoxy]acetyl]amino]ethoxy]ethoxy]acetyl]-[Arg^26,Lys^27,Glu^30,Arg^34,Lys^36]-GLP-1-(7-37)-peptidyl-Glu] (H-HAEGTFTSDVSSYLEGQAARK([AEEA-AEEA-γGlu-Decanoyl(10-(4-HOOC-PhO))])FIEWLVRGK([AEEA-AEEA-γGlu-Decanoyl(10-(4-HOOC-PhO))])GE-OH; N-terminus and C-terminus assumed)	93
CC[C@H](C)[C@H](NC(=O)[C@H](Cc1ccccc1)NC(=O)[C@H](CCCCNC(=O)COCCOCCNC(=O)COCCOCCNC(=O)CC[C@H](NC(=O)CCCCCCCCCCCCC(=O)O)C(=O)O)NC(=O)[C@H](CCCNC(=N)N)NC(=O)[C@@H](NC(=O)[C@H](C)NC(=O)[C@H](CCC(N)=O)NC(=O)[C@H](CCCCNC(=O)COCCOCCNC(=O)COCCOCCNC(=O)CC[C@H](NC(=O)CCCCCCCCCCCCC(=O)O)C(=O)O)NC(=O)[C@H](CCC(=O)O)NC(=O)[C@H](CC(C)C)NC(=O)[C@H](Cc1ccc(O)cc1)NC(=O)[C@H](CO)NC(=O)[C@H](CO)NC(=O)[C@@H](NC(=O)[C@H](CC(=O)O)NC(=O)[C@H](CO)NC(=O)[C@@H](NC(=O)[C@H](Cc1ccccc1)NC(=O)[C@@H](NC(=O)CNC(=O)[C@H](CCC(=O)O)NC(=O)[C@H](C)NC(=O)[C@@H](N)Cc1c[nH]cn1)[C@@H](C)O)[C@@H](C)O)C(C)C)C(C)C)C(=O)N[C@@H](CCC(=O)O)C(=O)N[C@@H](Cc1c[nH]c2ccccc12)C(=O)N[C@@H](CC(C)C)C(=O)N[C@H](C(=O)N[C@@H](CCC(N)=O)C(=O)NCC(=O)N[C@@H](CCCNC(=N)N)C(=O)NCC(=O)O)C(C)C [Example 11, N^ε22-[2-[2-[2-[[2-[2-[2-[[(4S)-4-carboxy-4-(13-carboxytridecanoylamino)butanoyl]amino]ethoxy]ethoxy]acetyl]amino]ethoxy]ethoxy]acetyl], N^ε27-[2-[2-[2-[[2-[2-[2-[[(4S)-4-carboxy-4-(13-carboxytridecanoylamino)butanoyl]amino]ethoxy]ethoxy]acetyl]amino]ethoxy]ethoxy]acetyl]-[Lys^22,Val^25,Arg^26,Lys^27,Glu^30,Gln^34]-GLP-1-(7-37)-peptide] (H-HAEGTFTSDVSSYLEK([AEEA-AEEA-γGlu-C14 diacid])QAVRK([AEEA-AEEA-γGlu-C14 diacid])FIEWLVQGRG-OH; N-terminus and C-terminus assumed)	66
CC[C@H](C)[C@H](NC(=O)[C@H](Cc1ccccc1)NC(=O)[C@H](CCCCNC(=O)COCCOCCNC(=O)COCCOCCNC(=O)CC[C@H](NC(=O)CCCCCCCCCOc1ccc(C(=O)O)cc1)C(=O)O)NC(=O)[C@H](CCCNC(=N)N)NC(=O)[C@@H](NC(=O)[C@H](C)NC(=O)[C@H](CCC(N)=O)NC(=O)CNC(=O)[C@H](CCC(=O)O)NC(=O)[C@H](CC(C)C)NC(=O)[C@H](Cc1ccc(O)cc1)NC(=O)[C@H](CO)NC(=O)[C@H](CO)NC(=O)[C@@H](NC(=O)[C@H](CC(=O)O)NC(=O)[C@H](CO)NC(=O)[C@@H](NC(=O)[C@H](Cc1ccccc1)NC(=O)[C@@H](NC(=O)CNC(=O)[C@H](CCC(=O)O)NC(=O)[C@H](C)NC(=O)[C@@H](N)Cc1c[nH]cn1)[C@@H](C)O)[C@@H](C)O)C(C)C)C(C)C)C(=O)N[C@@H](CCC(=O)O)C(=O)N[C@@H](Cc1c[nH]c2ccccc12)C(=O)N[C@@H](CC(C)C)C(=O)N[C@H](C(=O)N[C@@H](CCCNC(=N)N)C(=O)NCC(=O)N[C@@H](CCCCNC(=O)COCCOCCNC(=O)COCCOCCNC(=O)CC[C@H](NC(=O)CCCCCCCCCOc1ccc(C(=O)O)cc1)C(=O)O)C(=O)NCC(=O)N[C@@H](CCC(N)=O)C(=O)O)C(C)C [Example 12, N^α(N^ε27-[2-[2-[2-[[2-[2-[2-[[(4S)-4-carboxy-4-[10-(4-carboxyphenoxy)decanoylamino]butanoyl]amino]ethoxy]ethoxy]acetyl]amino]ethoxy]ethoxy]acetyl], N^ε36-[2-[2-[2-[[2-[2-[2-[[(4S)-4-carboxy-4-[10-(4-carboxyphenoxy)decanoylamino]butanoyl]amino]ethoxy]ethoxy]acetyl]amino]ethoxy]ethoxy]acetyl]-[Val^25,Arg^26,Lys^27,Glu^30,Arg^34,Lys^36]-GLP-1-(7-37)-peptidyl)-Gln] (H-HAEGTFTSDVSSYLEGQAVRK([AEEA-AEEA-γGlu-Decanoyl(10-(4-HOOC-PhO))])FIEWLVRGK([AEEA-AEEA-γGlu-Decanoyl(10-(4-HOOC-PhO))])GQ-OH; N-terminus and C-terminus assumed)	68
CC[C@H](C)[C@H](NC(=O)[C@H](Cc1ccccc1)NC(=O)[C@H](CCCCNC(=O)COCCOCCNC(=O)COCCOCCNC(=O)CC[C@H](NC(=O)CCCCCCCCCOc1ccc(C(=O)O)cc1)C(=O)O)NC(=O)[C@H](CCCNC(=N)N)NC(=O)[C@@H](NC(=O)[C@H](C)NC(=O)[C@H](CCC(N)=O)NC(=O)CNC(=O)[C@H](CCC(=O)O)NC(=O)[C@H](CC(C)C)NC(=O)[C@H](Cc1ccc(O)cc1)NC(=O)[C@H](CO)NC(=O)[C@H](CO)NC(=O)[C@@H](NC(=O)[C@H](CC(=O)O)NC(=O)[C@H](CO)NC(=O)[C@@H](NC(=O)[C@H](Cc1ccccc1)NC(=O)[C@@H](NC(=O)CNC(=O)[C@H](CCC(=O)O)NC(=O)[C@H](C)NC(=O)[C@@H](N)Cc1c[nH]cn1)[C@@H](C)O)[C@@H](C)O)C(C)C)C(C)C)C(=O)N[C@@H](CCC(=O)O)C(=O)N[C@@H](Cc1c[nH]c2ccccc12)C(=O)N[C@@H](CC(C)C)C(=O)N[C@H](C(=O)N[C@@H](CCC(N)=O)C(=O)NCC(=O)N[C@@H](CCCCNC(=O)COCCOCCNC(=O)COCCOCCNC(=O)CC[C@H](NC(=O)CCCCCCCCCOc1ccc(C(=O)O)cc1)C(=O)O)C(=O)NCC(=O)N[C@@H](CCC(=O)O)C(=O)O)C(C)C [Example 13, N^ε27-[2-[2-[2-[[2-[2-[2-[[(4S)-4-carboxy-4-[10-(4-carboxyphenoxy)decanoylamino]butanoyl]amino]ethoxy]ethoxy]acetyl]amino]ethoxy]ethoxy]acetyl], N^ε36-[2-[2-[2-[[2-[2-[2-[[(4S)-4-carboxy-4-[10-(4-carboxyphenoxy)decanoylamino]butanoyl]amino]ethoxy]ethoxy]acetyl]amino]ethoxy]ethoxy]acetyl]-[Val^25,Arg^26,Lys^27,Glu^30,Gln^34,Lys^36]-GLP-1-(7-37)-peptidyl-Glu] (H-HAEGTFTSDVSSYLEGQAVRK([AEEA-AEEA-γGlu-Decanoyl(10-(4-HOOC-PhO))])FIEWLVQGK([AEEA-AEEA-γGlu-Decanoyl(10-(4-HOOC-PhO))])GE-OH; N-terminus and C-terminus assumed)	126
